Assay results reported in patent US20030134901A1, “Lipoxin compounds and their use in treating cell proliferative disorders” (priority 1993, published 2003).

Test system: PLD activity in human PMN
Assay: PLD activity (PEt formation) in PMN
Format: cell-based
Conditions: biphasic concentration dependence
Description: PMN, platelet and RBC isolation from peripheral blood. Human PMN were obtained by the modified Böyum method (Böyum, A. (1968) Scan. J. Clin. Lab. Invest. 21:77) from fresh heparinized blood after venipuncture of healthy normal volunteers. Suspensions in PBS were monitored for cell number and viability by their ability to exclude trypan blue both exceeding 98%. Red blood cells were obtained from 10 ml of heparinized blood after three centrifugations in PBS (2,500 rpm, 10 min at 21° C.). Blood drawn in acidic citrate dextrose (9:1, v/v) was used to isolate platelets as previously described (Serhan, C. N. and Sheppard, K.-A. (1990) J. Clin. Invest. 85:772). PLD activity. Human PMN and HL-60 cells (50×10^6 cells/ml) prepared as above were incubated with ^3H-myristic acid or ^3H-palmitic acid (8 μCi/50×10^6 cells) for 40-60 min at 37° C. in PBS. […] Incubations were carried out at 37° C. (10 ×10^6 cells/ml PBS). […] M. et al. (1989) J. Biol. Chem. 264:17069. At indicated times, incubations were stopped by adding 3.5 ml of ice cold CHCl3/MeOH (2/5, v/v) containing 1-^14C-arachidonic acid (5,000 cpm) used here as internal standard to quantitate extraction recoveries. Samples were extracted using a modified Bligh and Dyer extraction as in (Serhan, C. N. and Sheppard, K. -A. (1990) J. Clin. Invest. 85:772). Organic phases, concentrated in 50 μL of CHCl3/MeOH (8/2, v/v), were spotted onto linear […] TLC plates developed with the organic phase of ethyl acetate[…][…] (110/50/20/100, v/v/v/v) for 50 min ([…]. et al.(1989) J. Biol. Chem. 264:17069). […] Regions corresponding to PA, PEt, and internal standards were scraped and quantified by liquid scintillation counting. […] In these experiments, PA was resolved using ethyl acetate[…][…]) as solvent system ([…]. et al. (1989) Anal. […] Impact of IAP and staurosporine on LXA4-induced PLD activity. PLD activity assays, performed as described (vide supra), were preceded by cell exposure to either IAP or staurosporine. […]

SMILES: CCCCC[C@H](O)/C=C/C=C\C=C\C=C\[C@@H](O)[C@@H](O)CCCC(=O)O [LXA4, (5S, 6R, 15S)-trihydroxy-7E, 9E, 11Z, 13E-eicosatetraenoic acid]
- concentration of second peak of activity, PEt formation: 10^−7 M
